Among the data in patent US6855843B2, “Inhibitors of α4 mediated cell adhesion” (Tanabe Seiyaku Co., Ltd., priority 1998, dated 2005) are IC50 values, retold here.

The target of the experiment is T1, α4β7 (adhesion of RPMI cells to CS-1) (Homo sapiens, UniProt P13612+P26010).
T1 construct: endogenous in cells
T1 sequence (P13612 34-1032): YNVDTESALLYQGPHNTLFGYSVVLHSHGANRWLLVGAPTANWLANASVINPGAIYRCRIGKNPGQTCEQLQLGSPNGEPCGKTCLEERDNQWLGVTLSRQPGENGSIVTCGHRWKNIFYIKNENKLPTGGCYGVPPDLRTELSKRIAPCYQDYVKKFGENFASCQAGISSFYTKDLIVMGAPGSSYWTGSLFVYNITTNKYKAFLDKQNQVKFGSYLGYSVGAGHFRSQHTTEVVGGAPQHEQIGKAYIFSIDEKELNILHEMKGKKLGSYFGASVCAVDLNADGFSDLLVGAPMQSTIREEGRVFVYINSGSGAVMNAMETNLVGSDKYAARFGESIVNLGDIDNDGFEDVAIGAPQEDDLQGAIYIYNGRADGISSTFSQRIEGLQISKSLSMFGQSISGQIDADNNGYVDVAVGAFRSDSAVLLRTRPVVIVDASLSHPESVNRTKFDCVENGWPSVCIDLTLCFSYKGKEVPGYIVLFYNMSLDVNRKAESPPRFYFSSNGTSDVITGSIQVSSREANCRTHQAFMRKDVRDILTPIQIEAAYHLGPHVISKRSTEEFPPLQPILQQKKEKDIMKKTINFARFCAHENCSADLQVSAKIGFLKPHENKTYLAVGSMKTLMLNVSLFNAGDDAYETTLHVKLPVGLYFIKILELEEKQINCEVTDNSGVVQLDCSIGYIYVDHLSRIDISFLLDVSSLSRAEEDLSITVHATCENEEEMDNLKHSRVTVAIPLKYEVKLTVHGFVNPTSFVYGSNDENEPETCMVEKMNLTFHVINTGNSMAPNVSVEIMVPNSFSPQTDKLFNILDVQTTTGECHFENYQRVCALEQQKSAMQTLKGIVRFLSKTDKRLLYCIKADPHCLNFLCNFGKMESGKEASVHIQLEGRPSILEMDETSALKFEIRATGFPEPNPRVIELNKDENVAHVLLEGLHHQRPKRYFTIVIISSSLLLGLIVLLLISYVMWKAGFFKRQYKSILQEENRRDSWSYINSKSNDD
T1 sequence (P26010 20-798): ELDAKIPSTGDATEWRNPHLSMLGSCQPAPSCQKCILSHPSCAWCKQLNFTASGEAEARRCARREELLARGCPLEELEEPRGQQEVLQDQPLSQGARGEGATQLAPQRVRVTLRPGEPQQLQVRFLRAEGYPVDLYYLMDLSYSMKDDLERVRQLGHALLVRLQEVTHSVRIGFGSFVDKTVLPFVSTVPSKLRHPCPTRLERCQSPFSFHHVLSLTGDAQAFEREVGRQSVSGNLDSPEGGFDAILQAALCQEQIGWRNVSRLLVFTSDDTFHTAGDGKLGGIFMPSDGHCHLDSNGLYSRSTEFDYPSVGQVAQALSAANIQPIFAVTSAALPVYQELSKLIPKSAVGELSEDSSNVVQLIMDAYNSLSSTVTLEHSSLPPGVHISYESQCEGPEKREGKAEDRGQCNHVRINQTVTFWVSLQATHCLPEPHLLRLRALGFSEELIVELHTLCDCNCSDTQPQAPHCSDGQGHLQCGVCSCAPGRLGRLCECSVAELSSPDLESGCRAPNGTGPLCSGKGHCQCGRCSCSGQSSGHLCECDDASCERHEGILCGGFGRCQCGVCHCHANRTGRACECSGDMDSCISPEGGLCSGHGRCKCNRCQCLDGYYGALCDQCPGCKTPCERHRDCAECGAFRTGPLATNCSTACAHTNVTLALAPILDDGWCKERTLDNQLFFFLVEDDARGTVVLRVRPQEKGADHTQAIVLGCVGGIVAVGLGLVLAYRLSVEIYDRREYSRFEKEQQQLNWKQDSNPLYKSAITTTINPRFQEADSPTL
The experiment is described as follows: RPMI-CS-1 cell adhesion assay. In kind it is cell-based. The following applies: adhesion of RPMI B-cell line (expresses α4β7) to CS-1 peptide coated microwells; read-out: RPMI-CS-1 IC50 value range. As to the method:
RPMI-CS-1 Cell Adhesion Assay:
The test compounds were added in increasing concentrations to RPMI cells and then the cell-compound mixture was added to CS-1 coated microwells. The plates were incubated, washed and the percentage of attached cells were quantitated.
The CS-1 derived peptide, […], and the scrambled control peptide, […], were synthesized at Tanabe Research Laboratories, USA, Inc. on a Beckman 990 synthesizer using t-Boc methodology. […] Microtiter plates were coated with 20 μg/ml human serum albumin (HSA) for 2 hours at room temperature, washed once with PBS and derivatized with 10 μg/ml SPDP for 1 hour. […] Unbound peptide was removed from the plates by washing with PBS. To block non-reacted sites, the plates were coated with 100 μl of a 2.5 mg/ml BSA solution in PBS for one hour at 37° C. 100 μl of RPMI cells (2.5×10^6 cells/ml) in Dulbecco's Modified Eagles Medium (DMEM) plus 0.25% ovalbumin were added to peptide coated dishes and incubated for 1 hour at 37° C. […] To do this, the enzyme substrate p-nitrophenyl-N-acetyl-β-D-glucoseaminide is dissolved at 7.5 mM in 0.1 M citrate buffer pH 5 and then mixed with an equal volume of 0.5% Triton X100. 50 μl of the substrate solution was added to the plates and the plates were incubated at 37° C. for 60 minutes.
In this assay, IC50 value ranges (μM) are depicted by A, B, C and D. These ranges as follows. D>5≧C>1≧B>0.3≧A
For orientation: IC50 means the concentration at which inhibition is half-maximal. For the compound `O=C(NS(=O)(=O)c1ccccc1-c1ccc(C[C@H](NC(=O)c2c(Cl)cccc2Cl)C(=O)O)cc1)c1ccccc1` [Example 18, N-(2,6-Dichlorobenzoyl)-4-[2-(N-benzoylsulfamoyl)phenyl]-L-phenylalanine], the IC50 lay in the range of 300 to 1000 nM.

Consider `CC(=O)Nc1ccccc1-c1ccc(C[C@H](NC(=O)c2c(Cl)cccc2Cl)C(=O)O)cc1` [Example 25], for which the half-maximal inhibitory concentration (IC50) lay in the range of 300 to 1000 nM.

Consider `CNC(=S)Nc1ccc(C(=O)N[C@@H](Cc2ccc(-c3ccccc3OC)cc2)C(=O)O)c(Cl)c1` [Example 70, N-[2-Chloro-4-(3-methylthioureido)benzoyl]-4-(2-methoxyphenyl)-L-phenylalanine], for which the IC50 is less than 300 nM.

Consider `COc1ccccc1-c1ccc(C[C@H](NC(=O)c2ccccc2NC(=O)c2c(Cl)cccc2Cl)C(=O)O)cc1` [Example 106], for which the IC50 lay in the range of 1000 to 5000 nM.

With `O=Cc1sccc1-c1ccc(C[C@H](NC(=O)c2c(Cl)cccc2Cl)C(=O)O)cc1` [Example 214, N-(2,6-Dichlorobenzoyl)-4-(2-formyl-3-thienyl)-L-phenylalanine], the IC50 lay in the range of 300 to 1000 nM.

Take `O=C(N[C@@H](Cc1ccc(-c2ccccc2)cc1)C(=O)O)c1c(Cl)cccc1Cl` [Example 111]: the IC50 lay within 1000 to 5000 nM.

Turning to `O=C(NCCN1CCOCC1)c1ccccc1-c1ccc(C[C@H](NC(=O)c2c(Cl)cccc2Cl)C(=O)O)cc1` [Example 59, N-(2,6-Dichlorobenzoyl)-4-[2-[N-(2-morpholinoethyl)carbamoyl]phenyl]-L-phenylalanine], the IC50 lay within 1000 to 5000 nM.

Take `O=C(N[C@@H](Cc1ccc(-c2ccccc2OCCCO)cc1)C(=O)O)c1c(Cl)cccc1Cl` [Example 37]: the half-maximal inhibitory concentration (IC50) fell in the range of 300 to 1000 nM.

Consider `COc1cc(OC)c(-c2ccc(C[C@H](NC(=O)c3c(Cl)cccc3Cl)C(=O)O)cc2)c(OC)c1` [Example 11, N-(2,6-Dichlorobenzoyl)-4-(2,4,6-trimethoxyphenyl)-L-phenylalanine], for which the IC50 is less than 300 nM.

For `COc1ccc(-c2ccc(C[C@H](NC(=O)c3c(Cl)cccc3Cl)C(=O)O)cc2)cc1` [Example 118], the IC50 fell in the range of 1000 to 5000 nM.

Take `CC(C)Oc1cccc(-c2ccc(C[C@H](NC(=O)c3c(Cl)cccc3Cl)C(=O)O)cc2)c1` [Example 224, N-(2,6-Dichlorobenzoyl)-4-(3-i-propoxyphenyl)-L-phenylalanine]: the IC50 lay in the range of 1000 to 5000 nM.

On to `COC(=O)[C@H](Cc1ccc(-c2ccccc2CNc2ccccn2)cc1)NC(=O)c1c(Cl)cccc1Cl` [Example 115], for which the IC50 lay in the range of 1000 to 5000 nM.

Regarding `COc1cccc(OC)c1-c1ccc(C[C@H](NC(=O)c2c(Cl)cccc2Cl)C(=O)OCc2cccnc2)cc1` [Example 273, N-(2,6-Dichlorobenzoyl)-4-(2,6-dimethoxyphenyl)-L-phenylalanine 3-pyridylmethyl ester], the half-maximal inhibitory concentration (IC50) lay in the range of 1000 to 5000 nM.

For `CCOC(=O)Nc1cc(C[C@H](NC(=O)c2c(Cl)cccc2Cl)C(=O)O)ccc1-c1ccccc1OC` [Example 345], the 50% inhibitory concentration (IC50) fell in the range of 300 to 1000 nM.

As to `COc1cccc(OC)c1-c1ccc(C[C@H](NC(=O)c2c(Cl)cc(-c3ccccn3)cc2Cl)C(=O)O)cc1` [Example 312], the concentration for half-maximal inhibition (IC50) was less than 300 nM.

With `O=C(O)CCCOc1ccccc1-c1ccc(C[C@H](NC(=O)c2c(Cl)cccc2Cl)C(=O)O)cc1` [Example 36], the IC50 is less than 300 nM.

As for “N-(2,6-Dichlorobenzoyl)-4-(2,6-dimethoxyphenyl)-L-phenylalanine 2-(dimethylamino)ethyl ester [Example 271]”, the 50% inhibitory concentration (IC50) is less than 300 nM.

For the compound `COC(=O)Nc1cccc(-c2ccc(C[C@H](NC(=O)c3c(Cl)cccc3Cl)C(=O)O)cc2)c1` [Example 125], the IC50 is 1000 to 5000 nM.

Consider `CS(=O)(=O)NC(=O)c1ccccc1-c1ccc(C[C@H](NC(=O)c2c(Cl)cccc2Cl)C(=O)O)cc1` [Example 61, N-(2,6-Dichlorobenzoyl)-4-[2-[(N-methanesulfonyl)carbamoyl]phenyl]-L-phenylalanine], for which the IC50 was more than 5000 nM.

With `N#Cc1ccccc1-c1ccc(C[C@H](NC(=O)c2c(Cl)cccc2Cl)C(=O)O)cc1` [Example 138], the IC50 is less than 300 nM.

As for `COc1ccccc1-c1ccc(C[C@H](NC(=O)c2ccc(NC(C)=O)cc2)C(=O)O)cc1` [Example 104], the IC50 is more than 5000 nM.

`COc1ccccc1-c1ccc(C[C@H](NC(=O)c2c(Cl)cc(NS(=O)(=O)C(F)(F)F)cc2Cl)C(=O)O)cc1` [Example 182, N-[2,6-Dichloro-4-[(trifluoromethanesulfonyl)amino]benzoyl]-4-(2-methoxyphenyl)-L-phenylalanine]: the concentration for half-maximal inhibition (IC50) is less than 300 nM.

As for `COc1cccc(OC)c1-c1ccc(C[C@H](NC(=O)c2cccc(C#N)c2)C(=O)O)cc1` [Example 282], the half-inhibitory concentration (IC50) is 1000 to 5000 nM.

As for `O=C(N[C@@H](Cc1ccc(-c2ccccc2CNCc2ccccc2)cc1)C(=O)O)c1c(Cl)cccc1Cl` [Example 48, N-(2,6-Dichlorobenzoyl)-4-[2-[(benzylamino)methyl]phenyl]-L-phenylalanine], the IC50 lay in the range of 1000 to 5000 nM.

Consider `COc1ccc(OC)c(-c2ccc(C[C@H](NC(=O)c3c(Cl)cccc3Cl)C(=O)O)cc2)c1OC` [Example 10, N-(2,6-Dichlorobenzoyl)-4-(2,3,6-trimethoxyphenyl)-L-phenylalanine], for which the IC50 was less than 300 nM.

Turning to `COc1cc(CN2CCCCC2)cc(OC)c1-c1ccc(C[C@H](NC(=O)c2c(Cl)cccc2Cl)C(=O)O)cc1` [Example 256, N-(2,6-Dichlorobenzoyl)-4-[2,6-dimethoxy-4-(piperidinomethyl)phenyl]-L-phenylalanine], the 50% inhibitory concentration (IC50) is less than 300 nM.

In the case of `COc1ccccc1-c1ccc(C[C@H](NC(=O)c2c(Cl)cccc2Cl)C(=O)O)cc1` [Example 8, N-(2,6-Dichlorobenzoyl)-4-(2-methoxyphenyl)-L-phenylalanine], the half-inhibitory concentration (IC50) was less than 300 nM.

Take `COc1cc(OCc2ccncc2)cc(OC)c1-c1ccc(C[C@H](NC(=O)c2c(Cl)cccc2Cl)C(=O)O)cc1` [Example 348]: the IC50 is less than 300 nM.

`COc1ccccc1-c1ccc(C[C@H](NC(=O)[C@@H](C)c2ccccc2)C(=O)O)cc1` [Example 2, N-[(S)-2-Phenylpropionyl]-4-(2-methoxyphenyl)-L-phenylalanine]: the IC50 was 1000 to 5000 nM.

`CC(=O)NS(=O)(=O)c1ccccc1-c1ccc(C[C@H](NC(=O)c2c(Cl)cccc2Cl)C(=O)O)cc1` [Example 19, N-(2,6-Dichlorobenzoyl)-4-[2-(N-acetylsulfamoyl)phenyl]-L-phenylalanine]: the IC50 fell in the range of 1000 to 5000 nM.
